The values that follow come from US20200071361A1, “ENGINEERED ANTIMICROBIAL AMPHIPHILIC PEPTIDES AND METHODS OF USE” (priority 2017, published 2020).

Converted amounts (≈) assume the structure as drawn.

Assay [1] relates to Enterococcus faecium isolates (n = 104). In words: Broth microdilution MIC, clinical isolate panel. It counts as cell-based. The note with it: Enterococcus faecium (n = 104). The protocol:
(§1) Comparator antibiotics were supplied by Micromyx, and stock solutions were prepared on the first day of testing using solvents recommended by CLSI (1). Stock solutions of all compounds were made at 40× the final testing concentration and stored at −80° C. prior to testing. Information regarding compound source, catalog and lot number, testing concentrations and drug diluent for the comparators and test agent are detailed below in Table 3.
(§2) The test organisms evaluated in this study consisted of clinical isolates from the Micromyx Repository and reference isolates from the American Type Culture Collection (ATCC; Manassas, Va.). The clinical isolates were obtained from USA hospitals. Upon initial receipt at Micromyx, the organisms were sub-cultured onto an appropriate agar medium. Following incubation, colonies were harvested from these plates and cell suspensions prepared and frozen at −80° C. with a cryoprotectant. Prior to testing, the isolates were streaked from frozen vials onto Trypticase Soy Agar with 5% sheep blood (Becton Dickenson [BD]; Sparks, Md.; Lot Nos. 7173618, 7166759, 7208688, 72144895, 7228505 and Remel Lenexa, Kans. Lot No. 212574). Plates were incubated at 35° C. overnight.
(§3) Mueller Hinton II broth (MHB II; BD; Lot Nos. 6258541 and 7143896) was used for MIC testing of aerobic organisms.
(§4) MIC values were determined using a broth microdilution procedure described by CLSI (1, 3). Automated liquid handlers (Multidrop 384, Labsystems, Helsinki, Finland; Biomek 2000 and Biomek FX, Beckman Coulter, Fullerton Calif.) were used to conduct serial dilutions and liquid transfers.
(§5) To prepare the drug mother plates, which would provide the serial drug dilutions for the replicate daughter plates, the wells of columns 2-12 of standard 96-well microdilution plates (Costar 3795) were filled with 150 μl of the designated diluent for each row of drug. The test articles and comparator compounds (300 μl at 40× the highest concentration to be tested) were dispensed into the appropriate wells in column 1. The Biomek 2000 was then used to make 2-fold serial dilutions in the mother plates from column 1 through column 11. The wells of Column 12 contained no drug and served as the organism growth control wells for the assay.
(§6) The daughter plates were loaded with 185 μL per well of MHB II using the Multidrop 384. The daughter plates were completed on the Biomek FX instrument which transferred 5 µL of drug solution from each well of a mother plate to the corresponding well of each daughter plate in a single step. A standardized inoculum of each test organism was prepared per CLSI methods (1). The inoculum for each organism was dispensed into sterile reservoirs divided by length (Beckman Coulter), and the Biomek 2000 was used to inoculate the plates. Daughter plates were placed on the Biomek 2000 work surface in reverse orientation so that inoculation took place from low to high drug concentration.
(§7) Plates were stacked 3-4 high, covered with a lid on the top plate, placed in plastic bags, and incubated at 35° C. for 16 to 20 hrs. Following incubation, the microplates were removed from the incubator and viewed from the bottom using a plate viewer. […] The MIC was read and recorded as the lowest concentration of drug that inhibited visible growth of the organism.
(§8) Clinical breakpoints to determine percent resistance within a given organism group were obtained from CLSI (3), with the exception of colistin for K. pneumoniae, Enterobacter spp., and E. coli, which are only available from EUCAST.

Assay [2] relates to Staphylococcus aureus isolates (n = 104). In words: Broth microdilution MIC, clinical isolate panel. The assay is classed as cell-based. The protocol:
as §1, §2, §3, §4, §5, §6, §7, §8

Assay [3] deals with Acinetobacter baumannii ATCC 19606 (non-MDR). In words: Broth microdilution MIC (Table 2). It counts as cell-based. The procedure:
(§9) Each peptide was formulated in PBS buffer prior to testing. Peptides of SEQ ID NO:5 and SEQ ID NO:8 were brought up in 100% DMSO with 0.002% polysorbate-80 at 1.28 mg/mL (40× the highest final test concentration of 32 mcg/mL). Final test concentration of DMSO was 2.5% in the assay at the first dilution for those two compounds.
(§10) Mueller Hinton II broth (MHB II; BD; Lot Nos. 6258541 and 7143896) was used for MIC testing of aerobic organisms. 0.002% polysorbate 80 (P80) was added to the test medium.
as §4
as §5, with “serial peptide” for “serial drug”, “of peptide.” for “of drug.”
as §6, with “5 uL” for “5 µL”, “of peptide” for “of drug”, “CLSI methods.” for “CLSI methods (1).”, “concentration. The plates were then inoculated with 10 μL of the inoculum resulting in a final cell density of approximately 5×10^5 CFU/mL, per well.” for “concentration.”
(§11) Plates were stacked 3-4 high, covered with a lid on the top plate, placed in plastic bags, and incubated at 35° C. for 16 to 20 hrs. Following incubation, the microplates were removed from the incubator and viewed from the bottom using a plate viewer. […] The MIC was read and recorded as the lowest concentration of peptide that inhibited visible growth of the organism.

For assay [4], the system named is Acinetobacter baumannii ATCC BAA-1797 (MDR). In words: Broth microdilution MIC (Table 2). The assay is classed as cell-based. The procedure:
as §9, §10, §4
as §5, with “serial peptide” for “serial drug”, “of peptide.” for “of drug.”
as §6, with “5 uL” for “5 µL”, “of peptide” for “of drug”, “CLSI methods.” for “CLSI methods (1).”, “concentration. The plates were then inoculated with 10 μL of the inoculum resulting in a final cell density of approximately 5×10^5 CFU/mL, per well.” for “concentration.”
as §11

In assay [5] the test system is Enterococcus faecalis ATCC 29212 (VSE; QC). The assay can be described thus: Broth microdilution MIC (Table 2). It counts as cell-based. The protocol: as §9, §10, §4
as §5, with “serial peptide” for “serial drug”, “of peptide.” for “of drug.”
as §6, with “5 uL” for “5 µL”, “of peptide” for “of drug”, “CLSI methods.” for “CLSI methods (1).”, “concentration. The plates were then inoculated with 10 μL of the inoculum resulting in a final cell density of approximately 5×10^5 CFU/mL, per well.” for “concentration.”
as §11

Assay [6] concerns Enterococcus faecalis ATCC 700802 (V583 VRE). The assay can be described thus: Broth microdilution MIC (Table 2). It counts as cell-based. The protocol: as §9, §10, §4
as §5, with “serial peptide” for “serial drug”, “of peptide.” for “of drug.”
as §6, with “5 uL” for “5 µL”, “of peptide” for “of drug”, “CLSI methods.” for “CLSI methods (1).”, “concentration. The plates were then inoculated with 10 μL of the inoculum resulting in a final cell density of approximately 5×10^5 CFU/mL, per well.” for “concentration.”
as §11

In assay [7] the test system is Enterococcus faecium ATCC 51559 (VRE). In words: Broth microdilution MIC (Table 2). The assay is classed as cell-based. The procedure:
as §9, §10, §4
as §5, with “serial peptide” for “serial drug”, “of peptide.” for “of drug.”
as §6, with “5 uL” for “5 µL”, “of peptide” for “of drug”, “CLSI methods.” for “CLSI methods (1).”, “concentration. The plates were then inoculated with 10 μL of the inoculum resulting in a final cell density of approximately 5×10^5 CFU/mL, per well.” for “concentration.”
as §11

Assay [8] relates to Pseudomonas aeruginosa ATCC 27853 (non-MDR; QC). In words: Broth microdilution MIC (Table 2). It counts as cell-based. The procedure:
as §9, §10, §4
as §5, with “serial peptide” for “serial drug”, “of peptide.” for “of drug.”
as §6, with “5 uL” for “5 µL”, “of peptide” for “of drug”, “CLSI methods.” for “CLSI methods (1).”, “concentration. The plates were then inoculated with 10 μL of the inoculum resulting in a final cell density of approximately 5×10^5 CFU/mL, per well.” for “concentration.”
as §11

Assay [9] concerns Staphylococcus aureus ATCC 29213 (MSSA; QC). The assay can be described thus: Broth microdilution MIC (Table 2). The assay is classed as cell-based. The procedure: as §9, §10, §4
as §5, with “serial peptide” for “serial drug”, “of peptide.” for “of drug.”
as §6, with “5 uL” for “5 µL”, “of peptide” for “of drug”, “CLSI methods.” for “CLSI methods (1).”, “concentration. The plates were then inoculated with 10 μL of the inoculum resulting in a final cell density of approximately 5×10^5 CFU/mL, per well.” for “concentration.”
as §11

Assay [10] deals with Staphylococcus aureus ATCC 43300 (MRSA). In words: Broth microdilution MIC (Table 2). The assay is classed as cell-based. The procedure: as §9, §10, §4
as §5, with “serial peptide” for “serial drug”, “of peptide.” for “of drug.”
as §6, with “5 uL” for “5 µL”, “of peptide” for “of drug”, “CLSI methods.” for “CLSI methods (1).”, “concentration. The plates were then inoculated with 10 μL of the inoculum resulting in a final cell density of approximately 5×10^5 CFU/mL, per well.” for “concentration.”
as §11

Assay [11] has as its system Staphylococcus aureus NRS382 (USA100; HA-MRSA). In words: Broth microdilution MIC (Table 2). The assay is classed as cell-based. The procedure: as §9, §10, §4
as §5, with “serial peptide” for “serial drug”, “of peptide.” for “of drug.”
as §6, with “5 uL” for “5 µL”, “of peptide” for “of drug”, “CLSI methods.” for “CLSI methods (1).”, “concentration. The plates were then inoculated with 10 μL of the inoculum resulting in a final cell density of approximately 5×10^5 CFU/mL, per well.” for “concentration.”
as §11

Assay [12] deals with Streptococcus agalactiae ATCC 13813. The assay can be described thus: Broth microdilution MIC (Table 2). It counts as cell-based. The note with it: ATCC13813. The procedure: as §9, §10, §4
as §5, with “serial peptide” for “serial drug”, “of peptide.” for “of drug.”
as §6, with “5 uL” for “5 µL”, “of peptide” for “of drug”, “CLSI methods.” for “CLSI methods (1).”, “concentration. The plates were then inoculated with 10 μL of the inoculum resulting in a final cell density of approximately 5×10^5 CFU/mL, per well.” for “concentration.”
as §11

Assay [13] concerns Streptococcus pneumoniae ATCC 49619 (QC). The assay can be described thus: Broth microdilution MIC (Table 2). The assay is classed as cell-based. The protocol:
as §9, §10, §4
as §5, with “serial peptide” for “serial drug”, “of peptide.” for “of drug.”
as §6, with “5 uL” for “5 µL”, “of peptide” for “of drug”, “CLSI methods.” for “CLSI methods (1).”, “concentration. The plates were then inoculated with 10 μL of the inoculum resulting in a final cell density of approximately 5×10^5 CFU/mL, per well.” for “concentration.”
as §11

Assay [14] deals with Streptococcus pyogenes ATCC 49399. The assay can be described thus: Broth microdilution MIC (Table 2). The assay is classed as cell-based. The procedure: as §9, §10, §4
as §5, with “serial peptide” for “serial drug”, “of peptide.” for “of drug.”
as §6, with “5 uL” for “5 µL”, “of peptide” for “of drug”, “CLSI methods.” for “CLSI methods (1).”, “concentration. The plates were then inoculated with 10 μL of the inoculum resulting in a final cell density of approximately 5×10^5 CFU/mL, per well.” for “concentration.”
as §11

For assay [15], the system named is Acinetobacter spp. isolates (n = 104). The assay can be described thus: Broth microdilution MIC, clinical isolate panel. It counts as cell-based. The following applies: Acinetobacter spp. (n = 104). The protocol:
as §1, §2, §3, §4, §5, §6, §7, §8

The test system of assay [16] is Escherichia coli isolates (n = 101). The assay can be described thus: Broth microdilution MIC, clinical isolate panel. The assay is classed as cell-based. The following applies: Escherichia coli (n = 101). The procedure: as §1, §2, §3, §4, §5, §6, §7, §8
The test system of assay [17] is Klebsiella pneumoniae isolates (n = 101). In words: Broth microdilution MIC, clinical isolate panel. The following applies: Klebsiella pneumoniae (n = 101). It counts as cell-based. The protocol: as §1, §2, §3, §4, §5, §6, §7, §8
Assay [18] relates to Pseudomonas aeruginosa isolates (n = 109). The assay can be described thus: Broth microdilution MIC, clinical isolate panel. The assay is classed as cell-based. The following applies: Pseudomonas aeruginosa (n = 109). The protocol: as §1, §2, §3, §4, §5, §6, §7, §8
Assay [19] has as its system Enterobacter spp. isolates (n = 102). In words: Broth microdilution MIC, clinical isolate panel. It counts as cell-based, Enterobacter aerogenes and E. cloacae. The following applies: Enterobacter spp. (n = 102). The protocol: as §1, §2, §3, §4, §5
The daughter plates were loaded with 185 μL per well of MHB II using the Multidrop 384. The daughter plates were completed on the Biomek FX instrument which transferred 5 µL of drug solution from each well of a mother plate to the corresponding well of each daughter plate in a single step. […]
Plates were stacked 3-4 high, covered with a lid on the top plate, placed in plastic bags, and incubated at 35° C. for 16 to 20 hrs. […] The MIC was read and recorded as the lowest concentration of drug that inhibited visible growth of the organism. […]

As for `CN[C@H](CC(C)C)C(=O)N[C@H]1C(=O)N[C@@H](CC(N)=O)C(=O)N[C@H]2C(=O)N[C@H]3C(=O)N[C@H](C(=O)N[C@H](C(=O)O)c4cc(O)cc(O)c4-c4cc3ccc4O)[C@H](O)c3ccc(c(Cl)c3)Oc3cc2cc(c3O[C@@H]2O[C@H](CO)[C@@H](O)[C@H](O)[C@H]2O[C@H]2C[C@](C)(N)[C@H](O)[C@H](C)O2)Oc2ccc(cc2Cl)[C@H]1O` [Vancomycin], the “% R (percent of isolates resistant, clinical breakpoints)” value in assay [1] is on record as 47.1%; in assay [2] (Staphylococcus aureus (n = 104), all methicillin-resistant), 0%. Also, the MIC in assay [2] (Staphylococcus aureus, read-out: Mode (MIC)) came to 1 mg/L (≈ 0.69 µM).

For the compound Colistin, the MIC in assay [3] was 0.25 mg/L; in assay [4], 0.25 mg/L; in assay [5] it was above 32 mg/L; in [6], above 32 mg/L; in assay [7] it was above 32 mg/L; in assay [8], 0.25 mg/L. Besides, the MIC in [9], in assay [10], in assay [11], in assay [12], in [13] and in assay [14] was above 32 mg/L each time. Also, the “% R (percent of isolates resistant, clinical breakpoints)” value in [15] came out at 20.2%; in assay [16], 0%; in [17] it was 27.7%; in assay [18], 7.3%; in [19] it was 5.8%.
